Target: T1, α4β7 integrin interaction with MadCAM-1 (RPMI8866 cells) (Homo sapiens, UniProt P13612+P26010)
T1 construct: α4β7 integrin expressing cells; endogenous in cells; host or cells: RPMI8866 cells
T1 sequence (P13612 34-1032): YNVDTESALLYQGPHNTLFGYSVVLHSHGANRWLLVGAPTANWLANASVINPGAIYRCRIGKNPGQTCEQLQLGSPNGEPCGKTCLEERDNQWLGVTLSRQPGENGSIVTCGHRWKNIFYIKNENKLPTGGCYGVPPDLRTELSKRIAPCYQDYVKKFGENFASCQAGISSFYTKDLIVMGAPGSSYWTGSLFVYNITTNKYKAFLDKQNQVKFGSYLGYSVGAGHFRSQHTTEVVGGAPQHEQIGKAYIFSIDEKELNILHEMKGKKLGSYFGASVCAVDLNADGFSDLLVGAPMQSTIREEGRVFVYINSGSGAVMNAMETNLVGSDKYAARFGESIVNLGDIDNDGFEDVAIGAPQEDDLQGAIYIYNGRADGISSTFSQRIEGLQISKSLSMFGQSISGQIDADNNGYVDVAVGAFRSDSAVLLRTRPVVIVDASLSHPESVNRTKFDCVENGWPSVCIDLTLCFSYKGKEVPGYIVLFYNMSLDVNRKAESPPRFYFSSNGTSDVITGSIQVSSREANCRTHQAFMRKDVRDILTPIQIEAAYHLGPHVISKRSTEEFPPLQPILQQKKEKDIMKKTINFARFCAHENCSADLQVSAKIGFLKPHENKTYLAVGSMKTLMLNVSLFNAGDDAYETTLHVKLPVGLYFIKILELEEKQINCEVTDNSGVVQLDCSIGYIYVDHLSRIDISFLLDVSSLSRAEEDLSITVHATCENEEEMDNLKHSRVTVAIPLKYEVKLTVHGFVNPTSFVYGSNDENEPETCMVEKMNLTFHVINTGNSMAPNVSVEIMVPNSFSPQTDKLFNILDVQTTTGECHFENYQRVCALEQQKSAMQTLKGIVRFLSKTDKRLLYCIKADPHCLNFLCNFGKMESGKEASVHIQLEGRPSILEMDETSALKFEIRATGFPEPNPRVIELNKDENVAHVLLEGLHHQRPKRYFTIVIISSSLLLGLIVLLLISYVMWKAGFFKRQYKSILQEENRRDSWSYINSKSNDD
T1 sequence (P26010 20-798): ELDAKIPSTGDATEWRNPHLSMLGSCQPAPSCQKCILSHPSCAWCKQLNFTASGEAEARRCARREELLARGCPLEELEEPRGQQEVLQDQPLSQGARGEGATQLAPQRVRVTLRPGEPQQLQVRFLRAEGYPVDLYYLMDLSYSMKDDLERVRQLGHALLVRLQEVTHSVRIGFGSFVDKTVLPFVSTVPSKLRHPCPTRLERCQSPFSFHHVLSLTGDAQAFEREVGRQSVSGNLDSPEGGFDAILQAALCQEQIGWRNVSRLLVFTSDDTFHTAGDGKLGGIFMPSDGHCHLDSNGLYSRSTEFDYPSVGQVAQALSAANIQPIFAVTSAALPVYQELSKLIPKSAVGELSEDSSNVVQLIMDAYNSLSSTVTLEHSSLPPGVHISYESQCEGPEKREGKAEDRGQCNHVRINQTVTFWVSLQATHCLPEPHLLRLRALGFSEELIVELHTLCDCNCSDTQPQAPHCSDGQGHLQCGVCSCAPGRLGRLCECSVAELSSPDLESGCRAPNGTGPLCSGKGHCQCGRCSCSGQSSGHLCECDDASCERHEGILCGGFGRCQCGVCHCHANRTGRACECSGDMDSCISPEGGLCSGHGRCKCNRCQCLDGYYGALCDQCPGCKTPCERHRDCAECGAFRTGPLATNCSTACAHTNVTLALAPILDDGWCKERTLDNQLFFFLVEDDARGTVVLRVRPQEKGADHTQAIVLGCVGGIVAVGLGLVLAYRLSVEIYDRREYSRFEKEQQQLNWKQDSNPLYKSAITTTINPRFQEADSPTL
Assay: α4β7 Integrin Cell Capture Assay
Type: cell-based
Conditions: capture of α4β7 integrin expressing RPMI8866 cells on recombinant MadCAM-1 extracellular domain-coated plate; 0.5 mM MnCl2
Procedure: The potency of inhibitors in preventing α4β7 integrin interaction with MadCAM-1 was measured by monitoring the capture of α4β7 integrin expressing cells on a recombinant MadCAM-1 extracellular domain-coated plate. 384-well plates (Corning 3702) were coated with MadCAM-1 extracellular domain by dispensing 20 μL of MAdCAM-1 at 1.0 μg/mL per well and incubating overnight at 4° C. The plates were then washed with PBS and blocked with 3% BSA for 2 hours before being washed again. RPMI8866 cells were spun down and re-suspended in assay medium (DMEM+0.5% FBS+0.5 mM MnCl2) at a density of 0.5×10^6 cells/mL. The cells were then dispensed (60 μL/well) to a 384-well plate (Greiner 781280) that was previously spotted with 60 nL of test compound per well. The plates were incubated at 37° C. for 1 hour. 50 μL of cells were transferred to the blocked, MadCAM-1-coated plates and incubated for 30 minutes at 37° C. 10 μL of 12% glutaraldehyde containing Hoechst 33342 (0.06 mg/mL) was added to the cells (2% glutaraldehyde and 0.01 mg/mL final concentrations). The plates were incubated for 90 minutes at room temperature. The plates were then washed 3 times with 70 μL of PBS per well and imaged on a Cellomics ArrayScan instrument. The cells that were bound to the plate were counted and plotted against the compound concentration to determine the EC50 of the test compounds.

Row | EC50 | Structure (SMILES)
1 | 0.29 nM | CC[C@@H](Nc1cc(F)c(C(=O)N[C@@H](Cc2ccc(-c3c(C(F)(F)F)cc(C)n(C)c3=O)c3c2CCCO3)C(=O)O)c(F)c1)C(F)(F)F (single isomer, unassigned) [Example 44]
2 | 6 nM | CC[C@@H](Nc1cc(F)c(C(=O)N[C@@H](Cc2ccc(-c3cc4ccccc4n(C)c3=O)c3c2COC3)C(=O)O)c(F)c1)C(F)(F)F [Example 21, (S)-2-(2,6-difluoro-4-(((R)-1,1,1-trifluorobutan-2-yl)amino)benzamido)-3-(7-(1-methyl-2-oxo-1,2-dihydroquinolin-3-yl)-1,3-dihydroisobenzofuran-4-yl)propanoic acid]
3 | 0.277 nM | Cn1c(=O)n(-c2ccc(C[C@H](NC(=O)c3c(F)cc(N4CCOC[C@@H]4C(F)(F)F)cc3F)C(=O)O)c3c2COC3)c(=O)c2ccncc21 [Example 182]
4 | 0.106 nM | Cc1cc(N2CCOC[C@@H]2C(F)(F)F)cc(F)c1C(=O)N[C@@H](Cc1ccc(-c2c(C)nc(C)n(C)c2=O)c2c1COC2)C(=O)O [Example 183]
5 | 0.242 nM | Cc1cc(C(F)(F)F)c(-c2ccc(C[C@H](NC(=O)c3c(F)cc(N[C@H](C)C(F)(F)F)cc3F)C(=O)O)c3c2COC3)c(=O)n1C [Example 20, (S)-2-(2,6-difluoro-4-(((R)-1,1,1-trifluoropropan-2-yl)amino)benzamido)-3-(7-(1,6-dimethyl-2-oxo-4-(trifluoromethyl)-1,2-dihydropyridin-3-yl)-1,3-dihydroisobenzofuran-4-yl)propanoic acid]
6 | 0.228 nM | Cc1nc(-c2ccc(C[C@H](NC(=O)c3c(F)cc(N4CCOC[C@@H]4C(F)(F)F)cc3F)C(=O)O)c3c2C[C@@H](O)C3)c(=O)n(C)c1C [Example 192]
7 | 0.388 nM | CC[C@@H](Nc1cc(F)c(C(=O)N[C@@H](Cc2ccc(-c3c(C(F)(F)F)cc(C)n(C)c3=O)c3c2COC3)C(=O)O)c(F)c1)C(F)(F)F [Example 13, (S)-2-(2,6-difluoro-4-(((R)-1,1,1-trifluorobutan-2-yl)amino)benzamido)-3-(7-(1,6-dimethyl-2-oxo-4-(trifluoromethyl)-1,2-dihydropyridin-3-yl)-1,3-dihydroisobenzofuran-4-yl)propanoic acid]
8 | 1.23 nM | COc1cc(C)n(C)c(=O)c1-c1ccc(C[C@H](NC(=O)c2c(F)cc(N[C@H](C)C(F)(F)F)cc2F)C(=O)O)c2c1OCCC2 [Example 48, (S)-2-(2,6-difluoro-4-(((R)-1,1,1-trifluoropropan-2-yl)amino)benzamido)-3-(8-(4-methoxy-1,6-dimethyl-2-oxo-1,2-dihydropyridin-3-yl)chroman-5-yl)propanoic acid]

Second part, the molecule before the results:

Row | Structure (SMILES) | EC50
9 | Cc1cc(N2CCOC[C@@H]2C(F)(F)F)cc(F)c1C(=O)N[C@@H](Cc1ccc(-c2c(N3CCC3)cc(C)n(C)c2=O)c2c1CCCO2)C(=O)O [Example 145] | 0.714 nM
10 | Cc1nc(-c2ccc(C[C@H](NC(=O)c3c(F)cc(N4CCC(F)(F)C[C@@H]4C(F)(F)F)cc3F)C(=O)O)c3c2OCCC3)c(=O)n(C)c1C [Example 144] | 0.552 nM
11 | Cc1cccc(F)c1C(=O)N[C@@H](Cc1ccc(-c2nc(C)c(C)n(C)c2=O)c2c1OCCO2)C(=O)O [Example 181] | 4.34 nM
12 | Cc1cc(N2CCOC[C@@H]2C(F)(F)F)cc(F)c1C(=O)N[C@@H](Cc1ccc(-c2cnc(C)n(C)c2=O)c2c1CCCO2)C(=O)O [Example 128] | 0.446 nM
13 | Cc1cc(N2CCOC[C@@H]2C(F)(F)F)cc(F)c1C(=O)N[C@@H](Cc1ccc(-c2cc(Cl)c(C)n(C)c2=O)c2c1CCCO2)C(=O)O [Example 142] | 0.25 nM
14 | Cc1cc(N2CCOC[C@@H]2C(F)(F)F)cc(F)c1C(=O)N[C@@H](Cc1ccc(-c2cnc(C)n(C)c2=O)c2c1OCCO2)C(=O)O [Example 178] | 0.348 nM
15 | O=C(N[C@@H](Cc1ccc(-c2cc(F)c(F)cc2OC2CC2)c2c1CCCO2)C(=O)O)c1c(F)cccc1F [Example 68, (S)-3-(8-(2-cyclopropoxy-4,5-difluorophenyl)chroman-5-yl)-2-(2,6-difluorobenzamido)propanoic acid] | 56.5 nM
16 | COc1cc(C)n(C)c(=O)c1-c1ccc(C[C@H](NC(=O)c2c(F)cc(N3CCOC[C@@H]3C(F)(F)F)cc2F)C(=O)O)c2c1OCCC2 [Example 46, (S)-2-(2,6-difluoro-4-((R)-3-(trifluoromethyl)morpholino)benzamido)-3-(8-(4-methoxy-1,6-dimethyl-2-oxo-1,2-dihydropyridin-3-yl)chroman-5-yl)propanoic acid] | 0.25 nM
17 | Cc1cc(C)n(C)c(=O)c1-c1ccc(C[C@H](NC(=O)c2c(F)cc(N3CCOC[C@@H]3C(F)(F)F)cc2F)C(=O)O)c2c1OCCC2 [Example 161] | 0.364 nM
18 | O=C(N[C@@H](Cc1ccc(-c2c(Cl)cc(F)cc2Cl)c2c1C1CC1CO2)C(=O)O)c1c(Cl)cccc1Cl (stereo partly drawn) [Example 80, (2S)-3-(4-(2,6-dichloro-4-fluorophenyl)-1,1a,2,7b-tetrahydrocyclopropa[c]chromen-7-yl)-2-(2,6-dichlorobenzamido)propanoic acid] | 67.7 nM
19 | Cc1cc(N2CCOC[C@@H]2C(F)(F)F)cc(F)c1C(=O)N[C@@H](Cc1ccc(-c2c(C)nc(C)n(C)c2=O)c2c1CCC2)C(=O)O [Example 194] | 0.099 nM
20 | Cc1cc(C(F)(F)F)c(-c2ccc(C[C@H](NC(=O)c3c(F)cc(N4CCOC[C@@H]4C(F)(F)F)cc3F)C(=O)O)c3c2CCC3)c(=O)n1C [Example 202] | 0.144 nM
21 | Cc1cc(N2CCOC3(CC3)C2)cc(F)c1C(=O)N[C@@H](Cc1ccc(-c2nc(C)c(C)n(C)c2=O)c2c1CCCO2)C(=O)O [Example 139] | 2 nM
22 | CCOCc1cc(OC)c(-c2ccc(C[C@H](NC(=O)c3c(F)cccc3F)C(=O)O)c3c2CCCO3)c(OC)c1 [Example 99, (S)-2-(2,6-difluorobenzamido)-3-(5-(4-(ethoxymethyl)-2,6-dimethoxyphenyl)chroman-8-yl)propanoic acid] | 9.33 nM
23 | Cc1cc(N2CCOC[C@@H]2C(F)(F)F)cc(F)c1C(=O)N[C@@H](Cc1ccc(-c2c(C)c(C(F)(F)F)cn(C)c2=O)c2c1CCCO2)C(=O)O [Example 146] | 0.416 nM
24 | O=C(N[C@@H](Cc1ccc(-c2c(Cl)cc(F)cc2Cl)c2c1CCCO2)C(=O)O)c1c(F)cc(N2CCOC[C@@H]2C(F)(F)F)cc1F [Example 83, (S)-3-(8-(2,6-dichloro-4-fluorophenyl)chroman-5-yl)-2-(2,6-difluoro-4-((R)-3-(trifluoromethyl)morpholino)benzamido)propanoic acid] | 35.5 nM
